Here are results for seven molecules from patent US4390523A, “Sorbose for inhibiting fermentation acids in the mouth” (priority 1972, dated 1983).

Where two headings read alike, the source gives them in different places.

Data set [1] has as its system oral bacteria (dilute human saliva). Nature of the data set: Formation of acids and lowering of pH by fermentation by oral bacteria (Table III). It is filed as cell-based. The settings on record: for pH of medium / NaOH necessary for neutralization: 1 ml of 18% solution in 10 ml medium; for pH of medium: saliva, 37° C.; for NaOH necessary for neutralization: N/40 NaOH; for formation of acids / acidification (conclusion) / lowering of the pH to: medium inoculated with dilute saliva. On the procedure: A series of tubes containing 10 ml of a sugarless nutritive culture medium at pH 7 was prepared. These tubes were sterilized by passing them through an autoclave at 120° C. for 20 minutes.
1 ml of sterile water was introduced into a first series of five tubes to make a control series.
1 ml of a sterile 18% solution of dextrose (weight/volume=W/V) was introduced into a second series of five tubes.
1 ml of a sterile 18% solution of saccharose (W/V) was introduced into a third series of five tubes.
1 ml of a sterile 18% solution of sorbose (W/V) was introduced into a fourth series of five tubes.
The sterile solutions of dextrose, saccharose and sorbose were obtained by sterilizing filtration by the usual technique.
A dilution of human saliva was prepared for immediate use and four tubes of each series were inoculated with the same volume of dilute saliva.
The formation of acids was followed by electric measurement of the pH and by determination of the quantity of acids formed; this determination was effected with a N/40 sodium/hydroxide solution, phenolphthalein being used as a neutralization indicator; a first determination was made before incubation, the following four determinations after incubations of 3, 6, 10 and 24 hours, respectively, at 37° C.
The results are assembled in Table III (pH value and value of the number of ml of sodium hydroxide necessary for neutralization).

The test system is the same in data set [2]. The settings on record: background statement; cited from earlier work.
The conditions of data set [3]: cited from earlier work.
For data set [4] the following is noted: printed as "hydroscopic"; cited from earlier work.

As to `OC[C@H]1O[C@@](CO)(O[C@H]2O[C@H](CO)[C@@H](O)[C@H](O)[C@H]2O)[C@@H](O)[C@@H]1O` [saccharose], the pH of medium in data set [1] (0 hours) was 7.0; in data set [1] (3 hours), 6.90; in data set [1] (6 hours), 6.90; in data set [1] (10 hours) it was 6.10; in data set [1] (24 hours) it was 5.10. Besides, the “NaOH necessary for neutralization” value in data set [1] (0 hours) stood at 2.50 mL; in data set [1] (3 hours) it was 2.45 mL; in data set [1] (6 hours), 2.40 mL; in data set [1] (10 hours), 3.20 mL; in data set [1] (24 hours) it was 6.10 mL. Moreover, in data set [1], the “formation of acids / acidification (conclusion)” value is on record as “distinct acidification”. Further, in data set [1], the “lowering of the pH to” value came to 5.1. Besides, in data set [2], the cariogenic properties entry is reported as “has cariogenic properties”. The “formation of acids and lowering of pH under the action of mouth bacteria (general statement)” value in data set [2] is “give rise to a lowering of the pH and a considerable production of acids”.
`OC[C@@H](O)[C@@H](O)[C@H](O)[C@H](O)CO` [mannitol]: the laxative effect result in data set [3] (in vivo) was “laxative in high doses”.
As for `O=C(CO)[C@@H](O)[C@H](O)[C@H](O)CO` [levulose, reference compound], in data set [4], the hygroscopicity result is reported as “very hydroscopic”.
Turning to `OC[C@@H](O)[C@@H](O)[C@H](O)[C@@H](O)CO` [sorbitol], the laxative effect result in data set [3] (in vivo) was “laxative in high doses”.
As to cyclamates, the harmfulness result in data set [3] (in vivo) is listed as “subject of serious reservations on the part of the medical profession in regards to their harmfulness”.
`O=C[C@H](O)[C@@H](O)[C@H](O)[C@H](O)CO` [dextrose]: the pH of medium in data set [1] (0 hours) amounted to 7.0; in data set [1] (3 hours), 6.90; in data set [1] (6 hours), 6.80; in data set [1] (10 hours), 6.50; in data set [1] (24 hours), 5.30. For the same molecule, the “NaOH necessary for neutralization” value in data set [1] (0 hours) worked out at 2.50 mL; in data set [1] (3 hours) it was 2.25 mL; in data set [1] (6 hours), 2.40 mL; in data set [1] (10 hours), 2.80 mL; in data set [1] (24 hours), 5.70 mL. For the same molecule, in data set [1], the “formation of acids / acidification (conclusion)” value was “distinct acidification”. In addition, the “lowering of the pH to” value in data set [1] is 5.3. For the same molecule, the “formation of acids and lowering of pH under the action of mouth bacteria (general statement)” value in data set [2] is “give rise to a lowering of the pH and a considerable production of acids”.
For `OC[C@@H](O)[C@H](O)[C@@H](O)CO` [xylitol], in data set [3] (high doses), the laxative effect entry is given as “laxative in high doses”.
